Columns and labels:
[1] = tested on: Escherichia coli ATCC 8739; assay: Quantitative evaluation of antibacterial activity of bank note samples, modified AATCC 100-1993; settings: 625 ppm agent in acrylate coating
Experimental: (§1) For the testing, a protocol was selected which measured the percent kill in a bacterial population over a period of time when put in contact with banknote samples.
(§2) Tests were conducted against two common bacteria: the gram-positive Staphylococcus aureus, which is found almost everywhere in and on the body, and which can cause numerous infections; as well as the gram-negative Escherichia coli, which is a common “bathroom bacteria” that can cause severe food poisoning. With good results against these organisms, efficacy against a broad spectrum of other bacteria can be predicted.
(§3) Ten samples marked Secu-GB1-A-260503, Secu-GB2-A-260503, Secu-GB3-A-260503, Secu-GB4-A-260503, Secu-GB5-A-260503, Secu-C-A-260503, Secu-C-B-260503, Secu-C-C-260503, Secu-C-D-260503 and Secu-C-E-260503 were manufactured employing 2,4,4′-trichloro-2′-hydroxydiphenyl ether in the acrylate composition applied as a coating layer on the planar material.
(§4) Samples from the bank note prototypes were evaluated for their antibacterial activity in accordance with the modified method AATCC 100-1993. The tests were performed against the organisms Staphylococcus aureus ATCC 6538 and Escherichia coli ATCC 8739.

[2] = tested on: Staphylococcus aureus ATCC 6538; assay: as above; settings: 625 ppm agent in acrylate coating
Experimental: as §1, §2, §3, §4

For Oc1cc(Cl)ccc1Oc1ccc(Cl)cc1Cl [2,4,4′-trichloro-2′-hydroxydiphenyl ether], the “log reductions (in words)” value [1] was “strong log reductions” and the “log reductions (in words)” value [2] was “strong log reductions”.

Reference: patent US20110200656A1, “ANTIMICROBIAL CURRENCY, MATERIAL AND METHOD” (MICROBAN PRODUCTS COMPANY, priority 2007, published 2011)
